Test results from publication PMC9889419 (Pharmacological Reports, 2022).
Structures can show the parent of a compound that is named as a salt. Where two headings read alike, the source gives them in different places.

Assays:
[1] = system: Frings mice; test: Frings mice sound-induced seizures; type: in vivo; conditions: ip
[2] = system: mice; test: Bicuculline-induced seizures; type: in vivo; conditions: ip
[3] = system: NIE-115 cells; test: Patch-clamp (sodium currents); type: cell-based; conditions: 100 µM
[4] = system: normotensive anaesthetized rats; test: Influence on blood pressure; type: in vivo; conditions: 5 mg/kg iv, immediately after administration
Description: Influence on blood pressure in rats. Rats were anaesthetized with thiopental (75 mg/kg ip). The right carotid artery was cannulated with polyethylene tube filled with heparin in saline to facilitate pressure measurements using a Datamax apparatus (Columbus Instruments).

[5] = Pharmacokinetics in plasma; type: in vivo, rats; conditions: for bioavailability / AUC(0-t) / C0 / MRT / clearance / Vd / k el / CL/F / Cmax / Tmax / Vd/F: male, Wistar, rat, plasma; for bioavailability: po; for bioavailability / AUC(0-t) / C0 / MRT / clearance / Vd / k el / CL/F / Cmax / Tmax / Vd/F / t0.5λz: rats; for Vd: read-out: Vz; for k el: read-out: λz (converted); for Vd/F: read-out: Vz/F
Description: Pharmacokinetic study design. Male Wistar rats (250–300 g) bred in-house from progenitors obtained from Charles River Laboratories (Sulzfed, Germany) were used in this study. Animals were fasted overnight prior to drug administration but had free access to water. […] Moreover, this compound dissolved in the same solvent was administered orally (po) by oral gavage at two doses (50 and 100 mg/kg) (n = 4). Blood samples were collected from the catheter at various time points up to 5 h. […] The animals were anaesthetized (50/7.5 mg/kg ketamine/xylazine, ip) and sacrificed by decapitation at 5, 15, 30, 60, 120, 180, and 300 min after compound administration (n = 4 per time point). Blood was collected into heparinized tubes and organs such as liver, brain, lungs, kidneys, and heart were harvested. The blood samples were centrifuged at 4000 rpm for 10 min (EBA 12R, Hettich, Germany). Plasma and organs were stored at − 80 °C until analysis.
Determination of KM-408 in plasma and tissue homogenates. Before analysis, tissue samples were homogenized in phosphate-buffered saline, pH 7.4 (1:4, w/v) with a tissue homogenizer (TH220; Omni International, Inc., Warrenton, VA, USA). Plasma (100 μL) or homogenate samples (500 μL) were mixed with an internal standard (IS) solution (R-( +)-propranolol, 4 μg/mL in methanol). Then, 20 μL of sodium carbonate (0.125 M) was added to each tube and the samples were extracted with 3 mL of diethyl ether by vortexing for 1 min. After centrifugation (3000 rpm, 15 min), the organic phase was transferred to a new tube and evaporated to dryness under a gentle stream nitrogen at 37 °C in a water bath. The dry residue was reconstituted in 100 μL of acetonitrile. Subsequently, 50 μL of 0.2 M borate buffer (pH = 7.0) and 50 μL of 6 mM FMOC-Cl solution in acetonitrile were added. After vortex-mixing for 1 min, the samples were kept for 30 min at 40 °C in a dry heat sterilizer (model MOV-112S, Sanyo, Japan). The reaction was stopped by the addition of 0.1 M solution of glycine in water (30 μL) and vortexing for 1 min. The reaction mixture was transferred directly into the autosampler vials. The chromatographic system (Merck-HITACHI, Japan) consisted of an L-2485 spectrofluorimetric detector operating at the excitation and emission wavelengths of 267 and 316 nm, respectively, an L-2130 pump, an L-2350 column oven, and an L-2200 autosampler. The EZChrom Elite Client/Server version 3.2 (Agilent Technologies Inc.) was used for data acquisition and processing. […] The column temperature was maintained at 50 °C. The mobile phase consisted of a mixture of acetonitrile and water (67:33, v/v), and pumped at a flow rate of 1 mL/min.
Pharmacokinetic data analysis. Plasma and tissue concentration versus time profiles were analyzed by the non-compartmental approach in Phoenix WinNonlin v. 6.3 software (Pharsight Corporation, Mountain View, CA, USA). The peak concentration (Cmax) and the time to reach Cmax (tmax) were obtained directly from individual concentration–time profiles. The initial concentration (C0) after an iv dosing was obtained by extrapolation to zero time. The linear trapezoidal rule was applied to calculate the areas under the concentration–time curve (AUC) from the time of dosing to the last measured data point (AUC0-t) or infinity (AUC0-∞). The terminal slope (λz) was estimated by linear regression and the terminal half-life (t0.5λz) was calculated as ln2/λz. The volume of distribution based on the terminal phase (Vz) was calculated as: Dose/(λz ∙ AUC0-∞), whereas clearance (CL) was obtained from the following equation: Dose/AUC0-∞. The mean residence time (MRT) was defined as: AUMC0-∞/AUC0-∞, where AUMC is the area under the first moment curve. The absolute bioavailability (Fa) was calculated according to the equation: (AUCpo./Dosepo)/(AUCiv/Doseiv).

In the case of `CCC(CO)NCCOc1c(C)cccc1Cl` (centres unmarked) [Compound 4, R,S-2-((2-(2-chloro-6-methylphenoxy)ethyl)amino)butan-1-ol], the “Frings mice sound-induced seizures ED50” value [1] is reported as 6.05 (4.23–8.45) mg/kg, the “Bicuculline-induced seizures ED50” value [2] is reported as greater than 70 mg/kg and the “% of control +/- SEM” value ([3]; holding potential -60 mV) is reported as 26 +/- 3%. For the same molecule, the “% of control +/- SEM” value ([3]; holding potential -90 mV) was 55 +/- 5%.
In the case of `CCC(CO)NCCOc1c(C)cccc1Cl` (centres unmarked) [KM-408, R,S-2-((2-(2-chloro-6-methylphenoxy)ethyl)amino)butan-1-ol hydrochloride], the “lowering of diastolic blood pressure” value [4] is reported as “approximately 21 mmHg”, the “lowering of systolic blood pressure” value [4] is reported as “approximately 21 mmHg” and the plasma concentration ([5]; 5 mg/kg iv, immediately after administration) is reported as 1.48*10^–5 M. For the same molecule, the bioavailability ([5]; 50 mg/kg, po 50 mg/kg, read-out: F) was 3.9%, the bioavailability ([5]; 100 mg/kg, po 100 mg/kg, read-out: F) was 3.6% and the bioavailability ([5]; 100 mg/kg, po 50 and 100 mg/kg, read-out: absolute bioavailability) was 3.6 to 3.9%. It also gave an AUC(0-t) ([5]; iv 1 mg/kg) of 207 ng·h/mL, a C0 ([5]; iv 1 mg/kg) of 371 ng/mL and an MRT ([5]; iv 1 mg/kg) of 51.7 min. The clearance ([5]; iv 1 mg/kg) was 80 mL/min/kg, the Vd ([5]; iv 1 mg/kg) was 2.53 L/kg and the k el ([5]; iv 1 mg/kg) was 0.000533 s⁻¹. The AUC(0-t) ([5]; iv 5 mg/kg) was 1210 ng·h/mL, the C0 ([5]; iv 5 mg/kg) was 4360 ng/mL and the MRT ([5]; iv 5 mg/kg) was 43.5 min. For the same molecule, the clearance ([5]; iv 5 mg/kg) was 70 mL/min/kg, the Vd ([5]; iv 5 mg/kg) was 3.77 L/kg and the k el ([5]; iv 5 mg/kg) was 0.0003 s⁻¹. For the same molecule, the AUC(0-t) ([5]; iv 10 mg/kg) was 2720 ng·h/mL, the C0 ([5]; iv 10 mg/kg) was 5330 ng/mL and the MRT ([5]; iv 10 mg/kg) was 42.3 min. For the same molecule, the clearance ([5]; iv 10 mg/kg) was 60 mL/min/kg, the Vd ([5]; iv 10 mg/kg) was 2.3 L/kg and the k el ([5]; iv 10 mg/kg) was 0.00045 s⁻¹. It also gave an AUC(0-t) ([5]; po 50 mg/kg) of 430 ng·h/mL, a CL/F ([5]; po 50 mg/kg) of 1950 mL/min/kg and a Cmax ([5]; po 50 mg/kg) of 313 ng/mL. It also gave an MRT ([5]; po 50 mg/kg) of 79.1 min, a Tmax ([5]; po 50 mg/kg) of 30 min and a Vd/F ([5]; po 50 mg/kg) of 80.3 L/kg. It also gave a k el ([5]; po 50 mg/kg) of 0.000383 s⁻¹, an AUC(0-t) ([5]; po 100 mg/kg) of 807 ng·h/mL and a CL/F ([5]; po 100 mg/kg) of 2060 mL/min/kg. It also gave a Cmax ([5]; po 100 mg/kg) of 573 ng/mL, an MRT ([5]; po 100 mg/kg) of 83 min and a Tmax ([5]; po 100 mg/kg) of 30 min. The Vd/F ([5]; po 100 mg/kg) was 104 L/kg, the k el ([5]; po 100 mg/kg) was 0.000333 s⁻¹ and the t0.5λz ([5]; iv 1 mg/kg) was 21.80 min. For the same molecule, the t0.5λz ([5]; iv 5 mg/kg) was 37.94 min, the t0.5λz ([5]; iv 10 mg/kg) was 26.02 min and the t0.5λz ([5]; po 50 mg/kg) was 30.59 min. The t0.5λz ([5]; po 100 mg/kg) was 34.98 min.
